{"source": "patent US8299085B2", "about": "“Quinazoline derivatives” (Novartis AG, priority 2004, dated 2012)", "key": {"AMPA receptor": {"molecular_target": "AMPA receptor", "experiment": "[3H] CNQX binding test (AMPA-receptor binding), brain membranes", "conditions": "5 nM [3H]-CNQX, 4° C., 40 min", "procedure": "CNQX binding test (Honoré et al. Biochem. Pharmacol. 1989, 38: 3207-3212). This test is performed as follows:\nBrain membranes: The animals are decapitated, the brain removed and homogenized in 10 volumes of ice-cold 10% sucrose with a glass/Teflon homogenizer at positions 5 for 30 sec. The membranes are centrifuged at 1000×g for 10 min, and the supernatant centrifuged at 20,000×g for 15 min. The resulting pellet is resuspended in 10 volumes of cold water with a tissue homogenizer (Brinkman Polytron) at position 5 for 15 sec and the suspension centrifuged at 8000×g for 10 min. The supernatant including the buffy layer is centrifuged at 40,000×g for 20 min, the pellet resuspended in 5 volumes of water and the suspension frozen (20-30 min in dry ice/methanol) and thawed (water-bath at 37° C.) twice. The suspension is centrifuged at 40,000×g for 20 min, the pellet resuspended in 50 mM HEPES/KOH, pH 7.5, and centrifuged at 40,000×g for 10 min. […]\nRadioligand binding assay: It is performed using 96-well microtiterplates in a volume of 0.3 ml of 50 mM HEPES/KOH, pH 7.2, 100 μg membrane protein, 5 nM [^3H]-CNQX (NEN) and the compound to be tested. […] Two hundred μl of the scintillation fluid Microscint 20 (Packard) are added and the radioactivity is counted in a Packard Topcount scintillation counter at an efficiency of 40-45%. […]"}, "[1]": {"molecular_target": "T1, rat GluR3-(flop) AMPA receptor (Rattus norvegicus, UniProt P19492)", "T1 construct": "expressed in transfected cells; host or cells: Xenopus laevis oocytes (cRNA injection)", "T1 sequence (P19492 23-888)": "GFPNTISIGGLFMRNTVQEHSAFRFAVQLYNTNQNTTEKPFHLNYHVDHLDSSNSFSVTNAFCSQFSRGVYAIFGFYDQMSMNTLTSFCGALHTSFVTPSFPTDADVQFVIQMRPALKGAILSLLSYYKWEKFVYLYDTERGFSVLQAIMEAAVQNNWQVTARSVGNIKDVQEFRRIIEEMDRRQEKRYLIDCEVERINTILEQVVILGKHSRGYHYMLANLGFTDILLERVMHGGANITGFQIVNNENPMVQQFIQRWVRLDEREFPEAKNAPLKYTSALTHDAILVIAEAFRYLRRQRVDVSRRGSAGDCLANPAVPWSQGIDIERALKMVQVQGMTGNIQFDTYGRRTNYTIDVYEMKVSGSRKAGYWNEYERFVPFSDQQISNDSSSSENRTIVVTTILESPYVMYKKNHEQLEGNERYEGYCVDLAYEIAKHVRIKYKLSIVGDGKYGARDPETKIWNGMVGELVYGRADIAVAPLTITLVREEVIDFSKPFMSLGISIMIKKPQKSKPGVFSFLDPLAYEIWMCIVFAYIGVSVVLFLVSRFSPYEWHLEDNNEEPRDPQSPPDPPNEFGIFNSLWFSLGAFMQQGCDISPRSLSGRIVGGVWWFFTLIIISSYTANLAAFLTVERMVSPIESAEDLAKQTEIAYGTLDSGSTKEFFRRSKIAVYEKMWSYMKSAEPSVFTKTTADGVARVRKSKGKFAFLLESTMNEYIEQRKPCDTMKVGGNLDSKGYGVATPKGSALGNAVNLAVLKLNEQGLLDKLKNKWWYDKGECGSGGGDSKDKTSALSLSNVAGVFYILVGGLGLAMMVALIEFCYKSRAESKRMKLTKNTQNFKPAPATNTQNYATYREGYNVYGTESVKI", "experiment": "Functional test for AMPA-receptor activity, two electrode voltage clamp in Xenopus laevis oocytes", "assay_type": "cell-based", "conditions": "Xenopus oocytes expressing rGluR3-(flop); read-out: IC50-value, antagonist at the rGluR3 AMPA receptor", "procedure": "For the determination of functional agonism or antagonism at the AMPA-receptor, experiments can be performed on Xenopus oocytes as previously described in detail (Urwyler et al., Mol. Pharmacol. 2001, 60, 963-971). Briefly, two electrode voltage clamp recordings are performed from Xenopus laevis oocytes expressing GluR3 AMPA receptors. Plasmids for the rat GluR3-(flop) (Hollmann et al., Science 1991, 252, 851-853) are linearized and transcribed into capped cRNA using an in vitro RNA synthesis kit (Ambion, Tex.) with T7 Polymerase. Stock solutions are kept in 70% ethanol. Before use, cRNA is precipitated and resuspended in DEPC-treated water. Oocytes are injected with RNA coding the rat GluR3-(flop) AMPA receptor. For recordings, oocytes are placed in a perfusion chamber with continuous gravity flow of frog Ringer's solution. For recordings from oocytes expressing rGluR3-(flop) receptors frog, Ringer's solution containing Mg^2+ (81 mM NaCl; 2.5 mM KCl; 1 mM CaCl2; 1 mM MgCl2, 2.5 mM NaHCO3, 5 mM HEPES, pH 7.4) is used. Test compounds are washed in with gravity."}, "[2]": {"test_system": "patients with diabetic neuropathy", "experiment": "Clinical study, chronic pain in patients with diabetic neuropathy", "assay_type": "in vivo, human", "conditions": "2400 mg/day, Maintenance and Follow-up Periods, statistically significant", "procedure": "Patients are randomized to receive 2400 mg/day of the compound or placebo in a 1:1 ratio.\nThe study consists of a Pre-randomization Phase (1 week) and a Double-blind Phase (5 weeks). The double-blind Phase consists of three periods: a one week Titration Period, a three-week Maintenance Period and a one-week Follow-up Period.\nDuring the 1-week Pre-randomization Phase, the eligibility of the patients is evaluated. Patients meeting all inclusion/exclusion criteria are randomized to either the compound or placebo in the Double-blind Phase. During the 1-week Titration Period, study medication is up-titrated from 800 mg/day (given b.i.d.) to 2400 mg/day (given b.i.d.). Patients who complete the 1-week Titration Period then enter the 3-week Maintenance Period. Patients who complete the 3-week Maintenance period or prematurely discontinue double-blind treatment then enter the 1-week Follow-up Period. Study medication is completely withdrawn on entry into the Follow-up Period. During the Double-blind Phase, serial efficacy and safety assessments are obtained. […]\nThe SF-MPQ total pain score at the end of the Maintenance Period is analyzed using an analysis of covariance model adjusting for the effect of treatment on post-treatment scores by using the baseline SF-MPQ total pain score as a covariate. Average weekly pain severity is analyzed using an analysis of covariance model with repeated measures using the treatment week and the mean pain severity rating during the Pre-randomization Phase as covariates. Usage of rescue medication during the Double-blind Phase is analyzed using the Cochran-Mantel-Haenszel test controlling for center. The mean pain severity rating during the Follow-up Period (rebound pain) is analyzed using an analysis of covariance model adjusting for the effect of treatment on the mean pain severity rating of the Follow-up Period with the mean pain severity rating during the Prerandomization Phase as a covariate."}, "Wistar Kyoto rats [3]": {"test_system": "Wistar Kyoto rats", "experiment": "Test 2: NMDA-channel blocker induced head swaying and circling", "assay_type": "in vivo, rat", "conditions": "10 mg/kg s.c., alone", "procedure": "Adult male Wistar Kyoto rats (340-380 g; Iffa Credo, Lyon, France) are used. The animals are randomized to the following treatment groups (n=10 per group): the compound (dosed 0, 3 or 10 mg/kg) followed by phencyclidine (PCP; an NMDA channel blocker, dosed 0 or 10 mg/kg). Compound (at t=−15 min) and PCP (at t=0 min) are administered s.c. in a volume of 1 ml/kg. Video-recordings of the animals behaviour over the period 0-30 min following PCP are scored by an observer who is unaware about the animals pretreatment. Head-swaying (rocking the head repeatedly by at least 2 cm left and right) and circling (turning around by using the forepaws, whereas the hindpaws remain more or less on the original position) are scored as present (1) or absent (0), every five minutes for the duruation of 1 minute. The scores for individual animals is summed and group scores used for statistical analysis (t-test with Bonferroni correction)."}, "Wistar Kyoto rats [4]": {"test_system": "Wistar Kyoto rats", "experiment": "Test 1: NMDA-antagonist induced locomotion", "assay_type": "in vivo, rat", "conditions": "10 mg/kg s.c.", "procedure": "Male Wistar Kyoto rats (Iffa Crédo, Lyon, France) weighing between 250 and 310 g are used. In principle 4 treatment groups are formed: 1) the compound (doses 1, 3 or 10 mg/kg) followed by the competitive NMDA receptor antagonist (S)-2-amino-3-(2′-chloro-5-phosphonomethyl-biphenyl-3-yl)-propionic acid, hereinafter SDZ 220-581 (10 mg/kg), 2) solvent-pretreatment followed by SDZ 220-581 (10 mg/kg), 3) solvent followed by solvent, 4) the compound (1, 3, 10 mg/kg) followed by solvent. Rats are randomly allocated to these pretreatment groups (n=10/dose group). Drugs are administered subcutaneous (s.c.), 15 min prior to SDZ 220-581. Immediately after the animals received SDZ 220-581, they are placed into the activity monitor for a period of 60 min. Locomotor activity is analysed over the initial 30 minutes.\nLocomotion is recorded with a videotracking system (VideoMot2, TSE Technical and Scientific Equipment GmbH, Bad Hombourg, Germany), using a closed circuit digital videocamera (WV-BP.330/GE, Panasonic, Osaka, Japan). The video-signal from the camera is digitized and used for data analysis. […] The camera is placed such, that four animals (one per arena) can be recorded simultaneously."}}}
{"smiles": "CN(C)c1cc2c(=O)n(NS(C)(=O)=O)c(=O)[nH]c2cc1[N+](=O)[O-]", "note": "[Example 4, N-(6-Dimethylamino-7-nitro-2,4-dioxo-1,4-dihydro-2H-quinazolin-3-yl)-methanesulfonamide]", "values": [{"measurement": "IC50", "setting": "AMPA receptor", "value": 290, "unit": "nM"}, {"measurement": "IC50", "setting": "[1]", "value": 2300, "unit": "nM"}]}
{"smiles": "CS(=O)(=O)Nn1c(=O)[nH]c2cc(C(F)(F)F)c(N3CCOCC3)cc2c1=O", "note": "[Example 68, N-(6-Morpholin-4-yl-2,4-dioxo-7-trifluoromethyl-1,4-dihydro-2H-quinazolin-3-yl) -methanesulfonamide]", "values": [{"measurement": "pain severity ratings relative to placebo", "setting": "[2]", "value": "decrease pain severity ratings relative to placebo"}]}
{"smiles": "CS(=O)(=O)Nn1c(=O)[nH]c2cc(C(F)(F)F)c(N3CCCOCC3)cc2c1=O", "note": "[Example 75, N-(6-[1,4]Oxazepan-4-yl-2,4-dioxo-7-trifluoromethyl-1,4-dihydro-2H-quinazolin-3-yl)-methanesulfonamide]", "values": [{"measurement": "pain severity ratings relative to placebo", "setting": "[2]", "value": "decrease pain severity ratings relative to placebo"}]}
{"smiles": "CN(CCO)c1cc2c(=O)n(NS(C)(=O)=O)c(=O)[nH]c2cc1C(F)(F)F", "note": "[Example 83, N-{6-[(2-Hydroxy-ethyl)-methyl-amino]-2,4-dioxo-7-trifluoromethyl-1,4-dihydro-2H-quinazolin-3-yl}-methanesulfonamide]", "values": [{"measurement": "pain severity ratings relative to placebo", "setting": "[2]", "value": "decrease pain severity ratings relative to placebo"}]}
{"smiles": "COC(=O)Nc1cc2c(=O)n(NS(C)(=O)=O)c(=O)[nH]c2cc1C(F)(F)F", "note": "[Example 101, (3-Methanesulfonylamino-2,4-dioxo-7-trifluoromethyl-1,2,3,4-tetrahydro-quinazolin-6-yl)carbamic acid methyl ester]", "values": [{"measurement": "melting point", "value": "232.4 to 240.2", "unit": "°C"}]}
{"smiles": "c1ccc(C2(N3CCCCC3)CCCCC2)cc1", "note": "[PCP, phencyclidine]", "values": [{"measurement": "head-swaying and circling", "setting": "Wistar Kyoto rats [3]", "value": "induces weak head-swaying and circling"}]}
{"smiles": "N[C@@H](Cc1cc(CP(=O)(O)O)cc(-c2ccccc2Cl)c1)C(=O)O", "note": "[SDZ 220-581, (S)-2-amino-3-(2′-chloro-5-phosphonomethyl-biphenyl-3-yl)-propionic acid]", "values": [{"measurement": "distance walked during 30 min", "setting": "Wistar Kyoto rats [4]", "value": "approximately 30 m"}]}
